Experimental data taken from patent publication US11542233B2, “Compounds, compositions and methods of use” (Aquinnah Pharmaceuticals, Inc., priority 2016, dated 2023).

System: TDP-43 aggregation in PC12 cells stably expressing GFP-tagged mutant TDP-43 (TDP-43^Q33IK::eGFP)
Test: In vitro efficacy assay: inhibition of TDP-43 inclusions, concentration-response, fluorescence microscopy
Type: cell-based
Conditions: PC12 cells, 1 hour pre-treatment, 15 μM sodium arsenite for 23 hours, 10-point dose response curve
Experimental: Exemplary compounds of the invention were evaluated for efficacy in inhibiting TDP-43 inclusions using a concentration-response assay. Briefly, PC12 cells stably expressing a GFP-tagged mutant form of TDP-43 (TDP-43^Q33IK::eGFP) were pre-treated for 1 hour with exemplary compounds and stressed with 15 μM sodium arsenite for 23 hours to induce TDP-43 aggregation. The inhibitory effect on TDP-43 aggregation was measured using fluorescence microscopy. The ratio of cells with TDP-43 aggregates was calculated based on the total number of cells with detectable GFP expression. In the table, “A” indicates an IC50 of less than 100 nM, “B” indicates an IC50 range from 100 nM to 500 nM; “C” indicates an IC50 range from 500 nM to 2 μM; and “D” indicates an IC50 greater than 2 μM.

IC50 [nM]	Structure (SMILES)
< 100	CCN(C(=O)c1cc2ccccc2[nH]1)[C@H]1CCC[C@@H](NCc2cccc(F)c2)C1 [Compound 106, N-ethyl-N-((1S,3R)-3-((3-fluorobenzyl)amino)cyclohexyl)-1H-indole-2-carboxamide]
> 2000	CCN(C(=O)c1cc2ccccc2[nH]1)[C@H]1CCC[C@@H](NCc2cccc(F)c2)C1 [Compound 122]

Same assay, conditions: Rattus norvegicus, PC-12, PC12 cells, 1 hour pre-treatment, 15 μM sodium arsenite for 23 hours, 10-point dose response curve

Structure (SMILES)	IC50 [nM]
CCN(C(=O)c1cc2ccccc2[nH]1)[C@H]1CCC[C@@H](N[C@H](c2cncnc2)C(F)(F)F)C1 (single isomer, unassigned) [Compound 412]	100 to 500
CCN(C(=O)c1cc2ccccc2[nH]1)[C@H]1CCC[C@@H](N[C@@H](c2cncnc2)C(F)(F)F)C1 (single isomer, unassigned) [Compound 413]	500 to 2000
CCN(C(=O)c1cc2ncccc2[nH]1)[C@H]1CCC[C@@H](N[C@H](c2ccccc2)C(F)(F)F)C1 (single isomer, unassigned) [Compound 416]	500 to 2000
CCN(C(=O)c1cc2ncccc2[nH]1)[C@H]1CCC[C@@H](N[C@@H](c2ccccc2)C(F)(F)F)C1 (single isomer, unassigned) [Compound 417]	100 to 500
CCN(C(=O)c1cc2ccccc2[nH]1)[C@@H]1CCC[C@H](NCc2ccccc2)C1 [Compound 103]	500 to 2000
CCN(C(=O)c1cc2ccccc2[nH]1)[C@H]1CCC[C@H](NCc2cccnc2)C1 [Compound 109]	500 to 2000
CCN(C(=O)c1cc2ccccc2[nH]1)C1CCC[C@H](NCc2ccc(F)cc2)C1 (some centres unmarked) [Compound 110]	100 to 500
CCN(C(=O)c1cc2ccccc2[nH]1)C1CCC[C@@H](NCc2ccc(F)cc2)C1 (some centres unmarked) [Compound 111]	< 100
CCN(C(=O)c1cc2ccccc2[nH]1)[C@@H]1CCC[C@@H](N[C@@H]2CCc3ccccc32)C1 [Compound 114]	> 2000
CCN(C(=O)c1cc2ccccc2[nH]1)[C@H]1CCC[C@@H](N2CCc3ccccc3C2)C1 [Compound 115]	500 to 2000
CCN(C(=O)c1cc2ccccc2[nH]1)[C@H]1CCC[C@H](N2CCc3ccccc3C2)C1 [Compound 116]	500 to 2000
CCN(C(=O)c1cc2ccccc2[nH]1)[C@H]1CCC[C@@H](NCCC2CC2)C1 [Compound 117]	< 100
CCN(C(=O)c1cc2ccccc2[nH]1)[C@H]1CCC[C@@H](NCC2CCOCC2)C1 [Compound 118]	100 to 500
CCN(C(=O)c1cc2ccccc2[nH]1)[C@H]1CCC[C@@H](N[C@H]2CCc3ccccc32)C1 [Compound 120]	500 to 2000
CCN(C(=O)c1cc2ccccc2[nH]1)[C@H]1CCC[C@@H](N[C@@H]2CCc3ccccc32)C1 [Compound 121]	> 2000
CCN(C(=O)c1cc2ccccc2[nH]1)[C@H]1CCC[C@@H](NCc2ccc(F)cc2)C1 [Compound 123, N-ethyl-N-((1S,3R)-3-((4-fluorobenzyl)amino)cyclohexyl)-1H-indole-2-carboxamide]	< 100

Structure (SMILES)	IC50 [nM]
CCN(C(=O)c1cc2ccccc2[nH]1)[C@H]1CCC[C@@H](N[C@H]2CCc3cc(F)ccc32)C1 [Compound 124]	< 100
CCN(C(=O)c1cc2ccccc2[nH]1)[C@H]1CCC[C@@H](N[C@@H]2CCc3cc(F)ccc32)C1 [Compound 125]	100 to 500
CCN(C(=O)c1cc2ccccc2[nH]1)[C@H]1CCC[C@@H](NCc2ccncc2)C1 [Compound 126]	100 to 500
CCN(C(=O)c1cc2ccccc2[nH]1)[C@H]1CCC[C@@H](NCc2ccccn2)C1 [Compound 127]	< 100
CCN(C(=O)c1cc2ccccc2[nH]1)[C@H]1CCC[C@@H](NCc2ccc(OC)cc2)C1 [Compound 128]	< 100
CCN(C(=O)c1cc2c(OC)cccc2[nH]1)[C@H]1CCC[C@@H](NCc2ccccc2)C1 [Compound 129]	< 100
CCN(C(=O)c1cc2ccccc2[nH]1)[C@H]1CCC[C@@H](NCc2cncnc2)C1 [Compound 130]	500 to 2000
CCN(C(=O)c1cc2ccccc2[nH]1)[C@H]1CCC[C@@H](NCc2cnc(C)nc2)C1 [Compound 131]	100 to 500
CCN(C(=O)c1cc2ccccc2[nH]1)[C@H]1CCC[C@@H](NCc2cnc(OC)nc2)C1 [Compound 132]	< 100
CCN(C(=O)c1cc2ccccc2[nH]1)[C@H]1CCC[C@@H](NCc2cccc(Cl)c2)C1 [Compound 134]	< 100
CCN(C(=O)c1cc2ccccc2[nH]1)[C@H]1CCC[C@@H](NCc2ccc(Cl)cc2)C1 [Compound 135]	< 100
CCN(C(=O)c1cc2ncccc2[nH]1)[C@H]1CCC[C@@H](NCc2cccc(F)c2)C1 [Compound 150, N-ethyl-N-((1S,3R)-3-((3-fluorobenzyl)amino)cyclohexyl)-1H-pyrrolo[3,2-b]pyridine-2-carboxamide]	< 100
O=C(c1cc2ccccc2[nH]1)N(CC(F)(F)F)[C@H]1CCC[C@@H](NCc2cccc(F)c2)C1 [Compound 170, N-((1S,3R)-3-((3-fluorobenzyl)amino)cyclohexyl)-N-(2,2,2-trifluoroethyl)-1H-indole-2-carboxamide]	< 100
O=C(c1cc2ccccc2[nH]1)N(CC(F)(F)F)[C@H]1CCC[C@H](NCc2cccc(F)c2)C1 [Compound 172, N-((1S,3S)-3-((3-fluorobenzyl)amino)cyclohexyl)-N-(2,2,2-trifluoroethyl)-1H-indole-2-carboxamide]	500 to 2000
O=C(c1cc2ccccc2[nH]1)N(CC(F)(F)F)C1CCC[C@H](NCc2cccnc2)C1 (some centres unmarked) [Compound 174]	> 2000
O=C(c1cc2ccccc2[nH]1)N(CC(F)(F)F)[C@H]1CCC[C@@H](NCc2cccnc2)C1 [Compound 175]	< 100

More lines, now with the values ahead:

IC50 [nM]	Structure (SMILES)
< 100	CCN(C(=O)c1cc2ccccc2[nH]1)[C@H]1CCC[C@@H](NCc2ccccc2)C1 [Compound 100, N-((1S,3R)-3-(benzylamino)cyclohexyl)-N-ethyl-1H-indole-2-carboxamide]
< 100	CCN(C(=O)c1cc2ccccc2[nH]1)C1CCC[C@@H](NCc2ccccc2)C1 (some centres unmarked) [Compound 101]
500 to 2000	CCN(C(=O)c1cc2ccccc2[nH]1)[C@H]1CCC[C@H](NCc2ccccc2)C1 [Compound 102]
500 to 2000	CCN(C(=O)c1cc2ccccc2[nH]1)[C@@H]1CCC[C@@H](NCc2ccccc2)C1 [Compound 104]
100 to 500	CCN(C(=O)c1cc2ccccc2[nH]1)[C@H]1CCC[C@@H](N(C)Cc2ccccc2)C1 [Compound 105, N-((1S,3R)-3-(benzyl(methyl)amino)cyclohexyl)-N-ethyl-1H-indole-2-carboxamide]
500 to 2000	CCN(C(=O)c1cc2ccccc2[nH]1)[C@H]1CCC[C@H](NCc2cccc(F)c2)C1 [Compound 107, N-ethyl-N-((1S,3S)-3-((3-fluorobenzyl)amino)cyclohexyl)-1H-indole-2-carboxamide]
100 to 500	CCN(C(=O)c1cc2ccccc2[nH]1)[C@H]1CCC[C@@H](NCc2cccnc2)C1 [Compound 108]
< 100	CCN(C(=O)c1cc2ccccc2[nH]1)C1CCCC(NC2CCc3ccccc32)C1 (centres unmarked) [Compound 112]
500 to 2000	CCN(C(=O)c1cc2ccccc2[nH]1)[C@@H]1CCC[C@@H](N[C@H]2CCc3ccccc32)C1 [Compound 113]
< 100	CCN(C(=O)c1cc2ccccc2[nH]1)[C@H]1CCC[C@H](NCC2CCOCC2)C1 [Compound 119]
100 to 500	CCN(C(=O)c1cc2ccccc2[nH]1)[C@H]1CCC[C@@H](NCc2cnc(Cl)nc2)C1 [Compound 133]
100 to 500	CCN(C(=O)c1cc2ccccc2[nH]1)[C@H]1CCC[C@@H](NCc2ncccn2)C1 [Compound 136]
100 to 500	CCN(C(=O)c1cc2ccccc2[nH]1)[C@H]1CCC[C@@H](NCc2ccncn2)C1 [Compound 137]
< 100	CCN(C(=O)c1cc2ncccc2[nH]1)[C@H]1CCC[C@@H](NCc2ccccc2)C1 [Compound 151]
< 100	CCN(C(=O)c1cc2ncccc2[nH]1)[C@H]1CCC[C@@H](NCc2ccc(F)cc2)C1 [Compound 152]
< 100	O=C(c1cc2ccccc2[nH]1)N(CC(F)(F)F)[C@H]1CCC[C@@H](NCc2ccc(F)cc2)C1 [Compound 171]
> 2000	O=C(c1cc2ccccc2[nH]1)N(CC(F)(F)F)[C@H]1CCC[C@H](NCc2ccncc2)C1 [Compound 176]
100 to 500	O=C(c1cc2ccccc2[nH]1)N(CC(F)(F)F)[C@H]1CCC[C@@H](NCc2ccncc2)C1 [Compound 177]
500 to 2000	O=C(c1cc2ccccc2[nH]1)N(CC(F)(F)F)[C@H]1CCC[C@H](NCc2ccccc2)C1 [Compound 178]
< 100	O=C(c1cc2ccccc2[nH]1)N(CC(F)(F)F)[C@H]1CCC[C@@H](NCc2ccccc2)C1 [Compound 179]
500 to 2000	O=C(c1cc2ccccc2[nH]1)N(CC(F)(F)F)[C@H]1CCC[C@H](NCc2ccc(F)cc2)C1 [Compound 180]
500 to 2000	O=C(c1cc2ccccc2[nH]1)N(CC(F)(F)F)[C@H]1CCC[C@H](NCC2CCOCC2)C1 [Compound 182]
> 2000	O=C(c1cc2ccccc2[nH]1)N(CC(F)(F)F)[C@H]1CCC[C@@H](NCC2CCOCC2)C1 [Compound 183]
> 2000	CCN(C(=O)c1cc2ccccc2[nH]1)[C@H]1CCC[C@@H](NC(=O)c2ccccc2)C1 [Compound 200, N-((1S,3R)-3-benzamidocyclohexyl)-N-ethyl-1H-indole-2-carboxamide]
100 to 500	CCN(C(=O)c1cc2ccccc2[nH]1)[C@H]1COC[C@@H](NCc2ccccc2)C1 [Compound 300, N-((3R,5S)-5-(benzylamino)tetrahydro-2H-pyran-3-yl)-N-ethyl-1H-indole-2-carboxamide]
